Drawing on PubChem BioAssay AID179 (DTP/NCI, 2004), this text covers EC50, IC50 and outcome for 70 molecules.

Values joined by “and” are separate entries in the source; they are usually repeats but may differ in a detail not shown here. Equal entries are not always repeated. Active and inactive are the calls of the source.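 How the source made its calls: active means compounds giving half or more protection of infected cells from virus-caused growth loss, again on retest; inactive means the rest.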 Where a SMILES comes first, the peptide text is derived from it. The star is where a group is joined. Boc = CC(C)(C)OC(=O)*

Usually EC50 stands for the midpoint of the concentration-response curve. As usually defined, the IC50 is the midpoint of a concentration-inhibition curve.

This assay has as its system CEM cells HIV-1 protection, formazan growth assay. Description: NCI AIDS Antiviral Assay. As to conditions: for IC50: measured here: growth of uninfected CEM cells. How it is done:
The ability of compounds to protect human CEM cells from HIV-1 infection is measured as a screen for new compounds capable of inhibiting the HIV virus. Five concentrations of drug were tested on uninfected and infected cells and cell growth was measured using a soluble formazan assay. […] Compounds that provided at least 50% protection were retested. Compounds that provided at least 50% protection on retest were listed as moderately active. Compounds that reproducibly provided 100% protection were listed as confirmed active. […] Note that the inability to provide protection could be due to toxicity.

Turning to `CCCCCC=C(c1cc(Cl)c(OC)c(-c2nc(C)no2)c1)c1cc(Cl)c(OC)c(-c2nc(C)no2)c1`, the EC50 was > 200 µM and the IC50 worked out at 10.2 µM.

Take `N#C/C(=C/NC(=S)Nc1ccccc1)C(N)=O`: the EC50 was > 200 µM and the concentration for half-maximal inhibition (IC50) was > 200 µM.

Take `CCOC(=O)C1=C(Nc2cccc(OC)c2)OCC1=O`: the EC50 was > 200 µM and the half-maximal inhibitory concentration (IC50) was > 200 µM.

With `CCOC(=O)Nc1ccc(/C=C\c2ccnc3ccccc23)cc1`, the EC50 was > 16.2 µM and the IC50 is 10 µM.

As for `CS(=O)(=O)N(CCC#N)c1ccc(C=O)cc1`, the EC50 is > 102 µM and the IC50 was > 102 µM.

In the case of `CC1C(Cl)(Cl)C1(C)/C=C/C1C(C)(C)C1(Cl)Cl` (stereo not given), the EC50 was > 200 µM and the IC50 is 91.2 µM.

On to `CC(OC(=O)C(CC(=O)OC(C)(C)C)NC(=O)OC(C)(C)C)C(=O)OCc1ccccc1` (stereo not given), for which the EC50 is > 200 µM and the concentration for half-maximal inhibition (IC50) is > 200 µM.

Consider `CCCNC(=O)C(C)(Cl)C(=O)c1ccccc1O` (stereo not given), for which the half-maximal effective concentration (EC50) was > 479 µM and the IC50 was 209 µM.

Consider `CC1=C2CCCC2C/C(=N/Nc2ccc([N+](=O)[O-])cc2[N+](=O)[O-])CC1` (stereo not given), for which the outcome was inactive.

As to `CCCCN(CCCC)C(=O)C(=O)C(C#N)c1ccc(C)cc1` (stereo not given), the outcome was inactive.

Turning to `O=S(=O)(SC1=NCCN1)c1cccc2ccccc12`, the EC50 is > 81.3 µM and the IC50 was determined as 37.2 µM.

For the molecule `Brc1ccc(-c2cc(-c3ccc4c(c3)OCO4)c(-c3cccs3)n2Cc2ccccc2)cc1`, the EC50 is > 200 µM and the 50% inhibitory concentration (IC50) is > 200 µM.

On to `OC1(c2ccccc2)c2ccccc2NC2=NCCN21` (stereo not given), for which the EC50 was > 200 µM and the IC50 stood at 110 µM.

`N#CC1=C(Cl)NC(Cl)=C(C#N)C1c1c(Cl)cccc1Cl`: the EC50 was 18.2 µM and the half-inhibitory concentration (IC50) is > 100 µM.

Consider `C1CSCCCSCCSCCCSC1`, for which the EC50 is > 18.2 µM and the IC50 was > 18.2 µM.

As for `CC(CCc1nc2ccccc2[nH]1)C1CCC2C3CC[C@@H]4C[C@H](O)CC[C@]4(C)C3CC[C@]12C` (stereo not given in full), the EC50 was > 50.1 µM and the IC50 is > 50.1 µM.

For `O=c1nc2n(cc1F)C1OC(CCl)C(O)C1O2` (stereo not given), the EC50 was > 200 µM and the 50% inhibitory concentration (IC50) is > 200 µM.

As to `COC(=O)c1ccc(NCC2=CC(=O)c3ccccc3C2=O)cc1`, the EC50 was > 200 µM and the half-maximal inhibitory concentration (IC50) was found to be 2.09 µM.

Consider `COC(=O)C(Cc1c[nH]c2ccccc12)NC(=O)C(Cc1c[nH]c2ccccc12)NC(=O)C(Cc1c[nH]c2ccccc12)NC(=O)C(Cc1c[nH]c2ccccc12)NC(=O)C(Cc1c[nH]c2ccccc12)NC(=O)OC(C)(C)C` (stereo not given) (Boc-WWWWW-OMe; configuration not given here), for which the EC50 was > 200 µM and the IC50 turned out to be 27.5 µM.

In the case of `CCOC(=O)CC1NCCc2cc(OC)c(OC)c([N+](=O)[O-])c21` (stereo not given), the outcome was inactive.

As for `COc1cc(O)c(C(=O)/C=C/c2ccccc2)c(O)c1C1C=C(C)CCC1C(C)C` (stereo not given), the outcome was inactive.

Take `CCCC1=NNc2n[nH]c(=S)n2N1`: the EC50 was > 132 µM and the IC50 turned out to be 58.9 µM.

On to `Brc1ccc2nc(-c3ccccc3)c3ccccc3c2c1`, for which the EC50 was > 200 µM and the IC50 is > 200 µM.

Take `COc1cccc2cc(C)c(C(=O)c3ccccc3)nc12`: the EC50 is > 64.6 µM and the IC50 was > 64.6 µM.

As to `COc1ccccc1C1SCC(=O)N1c1ccc(-n2c(-c3ccccc3)nc3ccccc3c2=O)cc1` (stereo not given), the EC50 is > 200 µM and the IC50 worked out at 135 µM.

As for `O=c1[nH]c2ccccc2c2c1CCO2`, the outcome was inactive.

As for `O=S1Nc2c(Cl)cc(Cl)c3c(Cl)cc(Cl)c(c23)N1`, the outcome was inactive.

For the molecule `CCOC(OCC)N1C(=O)C2(C(OCC)OCC)CC3C(OC(=O)N3N)c3cccc1c32` (stereo not given), the outcome was inactive.

With `COc1c(OCC(O)CN2CCCCC2)c2c(C)coc2c2ccoc12` (stereo not given), the EC50 was > 631 µM and the IC50 was determined as 35.5 µM.

As for `N#Cc1c(-c2ccco2)cc(-c2ccc(N)cc2)[nH]c1=O`, the EC50 was > 25.7 µM and the half-maximal inhibitory concentration (IC50) is > 25.7 µM.

With `Cn1cnc(/C=C/C#N)c1`, the EC50 was > 200 µM and the IC50 is > 200 µM.

Regarding `COC(=O)c1cc(-c2c[nH]cc2C(=O)OCc2ccccc2)cn1S(=O)(=O)c1ccc(C)cc1`, the EC50 is > 200 µM and the IC50 came out at 17.8 µM.

Regarding `COc1cc(OC)c(C(=O)[O][Sn]([c]2ccccc2)([c]2ccccc2)[c]2ccccc2)cc1OC`, the EC50 is > 200 µM and the concentration for half-maximal inhibition (IC50) worked out at 0.0631 µM.

Turning to `COc1cc(C(SCc2ccccc2)SCc2ccccc2)ccc1O`, the EC50 is > 200 µM and the half-maximal inhibitory concentration (IC50) was 34.7 µM.

For the molecule `CC(C)=CC1CC(=[N+]=[N-])C(=O)C1(C)C` (stereo not given), the EC50 was > 186 µM and the half-maximal inhibitory concentration (IC50) is > 186 µM.

In the case of `C=C1NC(=O)C(CC(C(=O)C(=O)Nc2c(C)cccc2C(C)(C)C)C(=O)c2ccc3ccccc3c2)C(=O)N1` (stereo not given), the EC50 is > 178 µM and the IC50 was > 178 µM.

For the molecule `NCCCSCC(=O)O`, the result was inactive.

Consider `COC(=O)CC1(O)C(C=C(C)C)C(C(=O)OC)C(=O)C(C(=O)OC)C1C(=O)OC` (stereo not given), for which the EC50 was > 200 µM and the IC50 was > 200 µM.

As for `NC(CS)=NC1CCCCC1`, the EC50 was > 200 µM and the IC50 amounted to 107 µM.

Turning to `C/C=C/[C@@H]1[C@H]2C(=O)[C@]3(Cl)[C@@H](/C=C/C)[C@@H]3C(=O)[C@@]12Cl`, the result was inactive.

As to `CC(C)=Nn1cnc2c1NC(C)(C)N=C2C(N)=O`, the EC50 is > 200 µM and the IC50 is > 200 µM.

Turning to `COC(C(=O)CN(C)C)(c1ccccc1)c1ccccc1`, the EC50 is > 200 µM and the concentration for half-maximal inhibition (IC50) was determined as 141 µM.

Regarding `CC1(C)OC(COCCOCCCCCO)C(COCCOCCCCCO)O1` (stereo not given), the outcome was inactive.

Regarding `CC(C)CCC[C@@H](C)[C@H]1CC[C@H]2[C@@H]3CCC4C[C@@H](OP(=O)(O)OCCC=C(c5cc(Cl)c(O)c(C(=O)O)c5)c5cc(Cl)c(O)c(C(=O)O)c5)CC[C@]4(C)[C@H]3CC[C@]12C` (stereo not given in full), the EC50 was > 200 µM and the IC50 came to 33.9 µM.

With `CN(C)CCNC(=O)c1cc([N+](=O)[O-])cc2c1Oc1ccccc1O2`, the EC50 was > 200 µM and the 50% inhibitory concentration (IC50) worked out at 10.5 µM.

Take `COc1ccc(NC(=O)C(=O)C(CC2C(=O)NC(=S)NC2=O)C(=O)c2ccc3ccccc3c2)c([N+](=O)[O-])c1` (stereo not given): the EC50 was > 123 µM and the half-inhibitory concentration (IC50) is > 123 µM.

On to `CCN1C[C@]2(C)CC[C@H](OCc3ccccc3)C34C5C[C@@H]6CC[C@](O)(C(C[C@@H]32)C14)C5[C@H]6OCc1ccccc1` (stereo not given in full), for which the EC50 is > 200 µM and the IC50 was > 100 µM.

Consider `Cc1cn(C2CC(N=C(N)NO)C(CO)O2)c(=O)[nH]c1=O` (stereo not given), for which the EC50 was > 5250 µM and the IC50 was 708 µM.

Regarding `C=CCNC(=S)/N=C/C(C(=O)Nc1ccccc1C)=C(\C)O`, the EC50 was > 200 µM and the IC50 is > 200 µM.

Turning to `NC(=O)C(NN=C(c1ccccc1)c1ccccc1)c1ccccc1` (stereo not given), the outcome was inactive.

On to `COC(=N)/C(C#N)=N/C1OCC(O)C(O)C1O` (stereo not given), for which the result was inactive.

`CC(=O)NC(NCCN)(c1ccccc1)c1ccccc1`: the EC50 was > 200 µM and the half-maximal inhibitory concentration (IC50) was > 200 µM.

On to `CC(=O)O[C@H]1CC[C@]2(C)C3CC[C@]4(C)C([C@H](C)CCCC(C)C)CCC4[C@]3(C#N)n3c(=O)n(-c4ccccc4)c(=O)n3[C@]2(C#N)C1` (stereo not given in full), for which the EC50 was > 200 µM and the 50% inhibitory concentration (IC50) was > 200 µM.

`CCCCCCCCCCCCCCCC=C(c1cc(Cl)c(OC)c(C(=O)O)c1)c1cc(Cl)c(OC)c(C(=O)O)c1`: the EC50 was > 1200 µM; the IC50 was 26.3 µM and 52.5 µM.

On to `N#C/C(C(=O)Nc1ccc(Cl)cc1)=C(/N)N1CCCCC1`, for which the EC50 was > 200 µM and the IC50 is > 200 µM.

Regarding `CC(=O)O[C@@H]1CC[C@]2(C)C3CC[C@]4(C)C(C(C)CCc5nc6ccccc6[nH]5)CCC4C3[C@H](OC(C)=O)C[C@@H]2C1` (stereo not given in full), the EC50 was > 50.1 µM and the IC50 came to 12.9 µM.

`COc1ccc2cc(C(C)C(=O)N3CCOC3=O)ccc2c1` (stereo not given): the EC50 was > 200 µM and the half-maximal inhibitory concentration (IC50) was > 200 µM.

For the molecule `CC1Cc2c(Br)nc(N)nc2NC1=O` (stereo not given), the EC50 is > 200 µM and the IC50 is > 200 µM.

Take `CC(CO)CCNc1ncnc2c1ncn2CCC#N` (stereo not given): the EC50 was > 200 µM and the 50% inhibitory concentration (IC50) is > 200 µM.

Regarding `Cc1cc(Cl)ccc1Nc1nc2c(s1)C(=O)c1ccccc1C2=O`, the result was inactive.

On to `O=C(O)Cn1ccc(=O)c2c([N+](=O)[O-])cccc21`, for which the EC50 is > 200 µM and the IC50 is > 200 µM.

With `Cc1cccc(C(=O)c2ccccc2)c1C(=O)O`, the EC50 is > 200 µM and the IC50 is > 200 µM.

Consider `Fc1c(F)c(-c2c(F)c(F)c(S)c(F)c2F)c(F)c(F)c1S`, for which the outcome was inactive.

As to `CCOC(=O)/C(C#N)=C1\SS/C(=C(/C#N)C(=O)OCC)S1`, the EC50 was > 200 µM and the IC50 is 19.5 µM.

`Cc1cn([C@H]2C[C@](C)(CO)N(C)O2)c(=O)[nH]c1=O`: the EC50 was > 200 µM and the IC50 is > 200 µM.

Regarding `CC1(C)OC2CN(C(=O)OCc3ccccc3)C(CO)C2O1` (stereo not given), the outcome was inactive.

`O=C(/C=C/c1ccccc1Cl)NC1C=Nc2ccc([N+](=O)[O-])cc2NC1` (stereo not given): the EC50 is > 26.9 µM and the IC50 was > 26.9 µM.

Consider `C[CH2][Sn]1([CH2]C)[O]C2C(O)OC(CO)C(O)C2[O]1` (stereo not given), for which the EC50 is > 200 µM and the IC50 was 3.16 µM.

Turning to `COc1ccc(/C=C2\SC(=S)N(/C=C(/C#N)C(=O)c3ccc4ccccc4c3)C2=O)cc1OC`, the EC50 is > 200 µM and the IC50 was found to be 11.7 µM.

Consider `COC1/C=C/OC2(C)Oc3c(C)c(O)c4c(c3C2=O)C(=O)C(CO)=C(NC(=O)/C(C)=C\C=C\C(C)C(O)C(C)C(O)C(C)C(OC(C)=O)C1C)C4=O` (stereo not given), for which the EC50 was > 200 µM and the IC50 was 91.2 µM.
